Test systems include MCF7 breast; SN12C renal; KM12 colon; HOP-92 NSCLC; RPMI-8226 leukemia; SW-620 colon; NCI-H23 lung; IGROV1 ovarian; NCI/ADR-RES ovarian; UO-31 renal; OVCAR-4 ovarian; NCI-H522 lung; BT-549 breast; PC-3 prostate; A498 renal; HCT-15 colon; MDA-N; SK-OV-3 ovarian; MDA-MB-435; SK-MEL-2 melanoma.
What all share (assay): NCI-60 cell line screen, 48 h

The structures appear in SMILES notation.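 Cultured in 96-well plates, cells were exposed to test compound for 48 hours across five concentrations. Definition used: TGI = concentration required for complete inhibition of growth.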

For `COc1ccc(-c2nc(N)c(C#N)c3c2CCSc2ccc(C)cc2-3)cc1OC`, the TGI is 63.5 µM in the assay with MCF7 breast; 44.4 µM in the assay on SN12C renal; 34.2 µM in the assay on KM12 colon; 55 µM with HOP-92 NSCLC; 7.09 µM with RPMI-8226 leukemia; > 100 µM in the assay with SW-620 colon. Moreover, the TGI was > 61 µM in the assay on NCI-H23 lung; > 91.2 µM in the assay on IGROV1 ovarian; > 58 µM in the assay on NCI/ADR-RES ovarian; 27.2 µM in the assay with UO-31 renal; > 93.8 µM in the assay with OVCAR-4 ovarian; > 100 µM with NCI-H522 lung. Further, the TGI with BT-549 breast was 70.8 µM; with PC-3 prostate, > 100 µM; in the assay on A498 renal, > 63.2 µM; in the assay on HCT-15 colon it was > 73.1 µM; in the assay on MDA-N it was > 45.5 µM; in the assay on SK-OV-3 ovarian it was > 95.1 µM. The TGI in the assay with MDA-MB-435 was > 100 µM; with SK-MEL-2 melanoma, > 75.6 µM.
As for `COc1ccc(C(=O)/C=C2\c3ccccc3C(=O)N2C)cc1`, the TGI in the assay on MCF7 breast was > 100 µM; with SN12C renal, > 100 µM; with KM12 colon, > 100 µM; in the assay on HOP-92 NSCLC, 75.7 µM; in the assay with RPMI-8226 leukemia, > 100 µM; in the assay with SW-620 colon it was > 100 µM. The TGI in the assay on NCI-H23 lung, in the assay on IGROV1 ovarian, with NCI/ADR-RES ovarian, in the assay with UO-31 renal, in the assay with OVCAR-4 ovarian and in the assay with NCI-H522 lung was > 100 µM throughout. Besides, the TGI with BT-549 breast, in the assay on PC-3 prostate, with A498 renal, with HCT-15 colon, in the assay on MDA-N and with SK-OV-3 ovarian was > 100 µM throughout. The TGI with MDA-MB-435 and in the assay with SK-MEL-2 melanoma was > 100 µM in each case.
For `COC(=O)c1cc(C)n2c1CS[C@@H]2c1ccccc1`, the TGI is > 100 µM with MCF7 breast; > 100 µM in the assay on SN12C renal; > 100 µM in the assay on KM12 colon; 76.8 µM in the assay on HOP-92 NSCLC; 84.5 µM in the assay on RPMI-8226 leukemia; > 100 µM in the assay on SW-620 colon. Besides, the TGI in the assay on NCI-H23 lung was > 100 µM; in the assay on IGROV1 ovarian it was > 100 µM; in the assay with NCI/ADR-RES ovarian, 87 µM; in the assay with UO-31 renal, > 100 µM; in the assay on OVCAR-4 ovarian it was > 100 µM; with NCI-H522 lung it was 82 µM. Also, the TGI in the assay with BT-549 breast was 82.8 µM; in the assay with PC-3 prostate, > 100 µM; in the assay on A498 renal, 88 µM; in the assay with HCT-15 colon, > 100 µM; in the assay with MDA-N, > 100 µM; in the assay with SK-OV-3 ovarian it was > 100 µM. Further, the TGI in the assay with MDA-MB-435 came out at 79 µM; with SK-MEL-2 melanoma it was 91.8 µM.
As for `Cc1nc2c(O)cccc2c(=O)[nH]1`, the TGI in the assay with MCF7 breast, with SN12C renal, with KM12 colon, with HOP-92 NSCLC, in the assay on RPMI-8226 leukemia and with SW-620 colon was > 1000 µM in each case. Also, the TGI in the assay on NCI-H23 lung, in the assay with IGROV1 ovarian, in the assay with NCI/ADR-RES ovarian, in the assay with UO-31 renal, in the assay on OVCAR-4 ovarian and in the assay on NCI-H522 lung was > 1000 µM in each case. In addition, the TGI with BT-549 breast was 634 µM; in the assay with PC-3 prostate, > 1000 µM; with A498 renal, > 1000 µM; in the assay on HCT-15 colon, > 1000 µM; with MDA-N, > 1000 µM; in the assay on SK-OV-3 ovarian, > 1000 µM. Besides, the TGI in the assay with MDA-MB-435 and in the assay with SK-MEL-2 melanoma was > 1000 µM in each case.
With `CN(C)C(=S)N/N=C\C(=N/NC(=S)N(C)C)c1ccccc1`, the TGI in the assay on MCF7 breast is > 38.8 µM; in the assay on SN12C renal, > 100 µM; in the assay with KM12 colon, > 100 µM; in the assay on HOP-92 NSCLC, 92.1 µM; in the assay on RPMI-8226 leukemia it was > 100 µM; in the assay with SW-620 colon, > 100 µM. For the same molecule, the TGI was > 45.4 µM with NCI-H23 lung; > 48.2 µM with IGROV1 ovarian; > 25.1 µM in the assay with NCI/ADR-RES ovarian; > 100 µM in the assay with UO-31 renal; > 100 µM in the assay with OVCAR-4 ovarian; 9.86 µM in the assay on NCI-H522 lung. Moreover, the TGI is > 100 µM in the assay with BT-549 breast; > 100 µM in the assay with PC-3 prostate; 49.1 µM with A498 renal; > 100 µM with HCT-15 colon; > 100 µM in the assay on MDA-N; > 100 µM in the assay on SK-OV-3 ovarian. Besides, the TGI with MDA-MB-435 and in the assay with SK-MEL-2 melanoma was > 100 µM each time.
As to `CC(C)=CCC[C@](C)(O)[C@H]1CC[C@]2(C)[C@@H]1[C@H](O)C[C@@H]1[C@@]3(C)CC[C@H](O[C@@H]4O[C@H](CO)[C@@H](O)[C@H](O)[C@H]4O)C(C)(C)[C@@H]3CC[C@]12C`, the TGI was determined as 32.2 µM with MCF7 breast; 32.9 µM in the assay on SN12C renal; 33.3 µM in the assay on KM12 colon; 33.7 µM in the assay on HOP-92 NSCLC; 38.8 µM in the assay on RPMI-8226 leukemia; 36.6 µM with SW-620 colon. In addition, the TGI was 38 µM in the assay with NCI-H23 lung; 29.8 µM in the assay with IGROV1 ovarian; 55.1 µM in the assay with NCI/ADR-RES ovarian; 31.1 µM with UO-31 renal; 38.1 µM in the assay on OVCAR-4 ovarian; 31.9 µM with NCI-H522 lung. In addition, the TGI in the assay on BT-549 breast came to 34.3 µM; in the assay with PC-3 prostate, 31.9 µM; in the assay with A498 renal, 35.4 µM; in the assay on HCT-15 colon, 32.8 µM; in the assay on MDA-N, 36.3 µM; in the assay with SK-OV-3 ovarian it was 33 µM. The TGI in the assay with MDA-MB-435 was 36.1 µM; with SK-MEL-2 melanoma, 29.7 µM.
Consider `O=C(CC(=O)N(C(=O)c1ccccc1)c1ccc(Cl)cc1)N/N=C\c1ccccc1O`, for which the TGI with MCF7 breast is > 100 µM; in the assay on SN12C renal it was > 100 µM; in the assay on KM12 colon it was > 100 µM; with HOP-92 NSCLC it was 75 µM; with RPMI-8226 leukemia it was > 100 µM; in the assay on SW-620 colon it was > 100 µM. In addition, the TGI in the assay on NCI-H23 lung, in the assay with IGROV1 ovarian, in the assay on NCI/ADR-RES ovarian, in the assay on UO-31 renal, in the assay with OVCAR-4 ovarian and in the assay on NCI-H522 lung was > 100 µM throughout. Besides, the TGI with BT-549 breast is > 100 µM; with PC-3 prostate, > 100 µM; in the assay with A498 renal it was > 100 µM; in the assay with HCT-15 colon it was > 100 µM; in the assay on MDA-N, > 100 µM; in the assay with SK-OV-3 ovarian, 54.3 µM. Besides, the TGI in the assay with MDA-MB-435 and in the assay with SK-MEL-2 melanoma was > 100 µM each time.
`Oc1ccc2ccccc2c1-c1c(Nc2ccccc2)ccc2ccccc12`: the TGI in the assay on MCF7 breast is > 42.7 µM; in the assay with SN12C renal, > 61.2 µM; in the assay with KM12 colon it was 37.3 µM; in the assay on HOP-92 NSCLC it was > 46.5 µM; in the assay with RPMI-8226 leukemia it was 47.6 µM; in the assay on SW-620 colon, 26.8 µM. Also, the TGI with NCI-H23 lung was 30 µM; in the assay with IGROV1 ovarian, 18.7 µM; in the assay on NCI/ADR-RES ovarian, > 51.3 µM; in the assay with UO-31 renal, 29.2 µM; in the assay with OVCAR-4 ovarian, 25.4 µM; with NCI-H522 lung it was 29.6 µM. For the same molecule, the TGI in the assay with BT-549 breast is 30.1 µM; in the assay on PC-3 prostate, 36.8 µM; with A498 renal it was 36.2 µM; with HCT-15 colon it was > 56.4 µM; with MDA-N, 20.5 µM; with SK-OV-3 ovarian, 18.7 µM. Moreover, the values for the TGI with MDA-MB-435 and with SK-MEL-2 melanoma were 20.2 µM and 36.3 µM, respectively.
Take `C[C@@H](C(=O)O)c1ccc(-c2ccccc2)c(F)c1`: the TGI in the assay on MCF7 breast, with SN12C renal, with KM12 colon, in the assay on HOP-92 NSCLC, with RPMI-8226 leukemia and in the assay on SW-620 colon was > 100 µM in each case. Moreover, the TGI with NCI-H23 lung, in the assay on IGROV1 ovarian, with NCI/ADR-RES ovarian, in the assay on UO-31 renal, in the assay on OVCAR-4 ovarian and with NCI-H522 lung was > 100 µM throughout. In addition, the TGI in the assay on BT-549 breast, in the assay with PC-3 prostate, with A498 renal, in the assay on HCT-15 colon, in the assay on MDA-N and with SK-OV-3 ovarian was > 100 µM in each case. In addition, the TGI in the assay with MDA-MB-435 and with SK-MEL-2 melanoma was > 100 µM throughout.

The values are drawn from PubChem BioAssay (NCI).
